Measurements as given in patent US9809623B2, “α4β7 peptide monomer and dimer antagonists” (Protagonist Therapeutics, Inc., priority 2014, dated 2017).
Read-outs that look alike come from different tables or passages of the source. Numbered stars: 1 amine (or outer) side, 2 acyl side, 3 side chain; on linkers, the order of the positions; unused ones are H or OH. Bridge positions count the residues as written; N and C are the ends. Square brackets hold non-standard residues; d marks the D form. Peptide text beside a SMILES is read from it. I, II: the chains in the order shown. Phe(3-CONH2) = NC(=O)c1cccc(C[C@H](N)C(=O)O)c1; Phe(4-F) = N[C@@H](Cc1ccc(F)cc1)C(=O)O; 2Nal = N[C@@H](Cc1ccc2ccccc2c1)C(=O)O; Diglycolyl = O=C(COCC(=O)[*:2])[*:1]; NMeR = CN[C@@H](CCCNC(=N)N)C(=O)O; hPhe = N[C@@H](CCc1ccccc1)C(=O)O; Tic = O=C(O)[C@@H]1Cc2ccccc2CN1; β3hE = N[C@@H](CCC(=O)O)CC(=O)O; Pen = CC(C)(S)[C@H](N)C(=O)O; Dab = NCC[C@H](N)C(=O)O

Tests used:
[1] = Simulated Intestinal Fluid (SIF) Stability Assay; format: in vitro ADME, porcine; conditions: pig, pH 6.5, Table 3-B
Description: Studies were carried out in simulated intestinal fluid (SIF) to evaluate intestinal stability of the peptide molecules of the instant invention. To prepare the SIF reagent, blank FASSIF was prepared by dissolving 0.348 g NaOH, 3.954 g sodium phosphate monobasic monohydrate and 6.186 g NaCl in a final volume of 1 liter water (final pH=6.5). To this solution, 24 g porcine pancreatin (Sigma catalog P7545) was added and stirred for 30 minutes (final pancreatin concentration is 2.4%). The solution was filtered through a cheese cloth and a No. 1 Whatman filter, and 10 ml aliquots were stored at −70° C. To run the reaction, a 10 ml aliquot was thawed at 37° C., and 125 ul aliquots were removed and mixed with an equal volume of blank FASSIF. The peptide stock solution (10 mM in 100% DMSO) was diluted 75-fold in blank FASSIF. A 50 μl aliquot of the diluted peptide was combined with 125 μl pancreatin (2.4%) and 125 μl blank FASSIF to yield final concentrations of 1% pancreatin and 22 μM peptide. The reactions were incubated at 37° C., and at various time points 50 μl aliquots were removed and added to 200 μl of quench solution containing 50% acetonitrile, 50% methanol, 5% formic acid, and 1 μg/ml internal standard. The quenched samples were centrifuged at 10,000 rpm for 10 minutes, and the supernatants were analyzed by LCMS/MS. The percent remaining at each time point was calculated based on the peak area response ratio of test to compound to internal standard. Half-lives were calculated by fitting to a first-order exponential decay equation using GraphPad.

α4β7 = α4β7 (Homo sapiens, UniProt P13612+P26010); test: α4β7-MAdCAM Cell Adhesion Assay (RPMI 8866 human cells); format: cell-based; design: host or cells: RPMI 8866 human B lymphoblastoid cells; conditions: Table 3-B, Potency (α4β7); range classes; read-out: α4β7 cell (Hu) IC50
α4β7, sequence (P13612 34-1032): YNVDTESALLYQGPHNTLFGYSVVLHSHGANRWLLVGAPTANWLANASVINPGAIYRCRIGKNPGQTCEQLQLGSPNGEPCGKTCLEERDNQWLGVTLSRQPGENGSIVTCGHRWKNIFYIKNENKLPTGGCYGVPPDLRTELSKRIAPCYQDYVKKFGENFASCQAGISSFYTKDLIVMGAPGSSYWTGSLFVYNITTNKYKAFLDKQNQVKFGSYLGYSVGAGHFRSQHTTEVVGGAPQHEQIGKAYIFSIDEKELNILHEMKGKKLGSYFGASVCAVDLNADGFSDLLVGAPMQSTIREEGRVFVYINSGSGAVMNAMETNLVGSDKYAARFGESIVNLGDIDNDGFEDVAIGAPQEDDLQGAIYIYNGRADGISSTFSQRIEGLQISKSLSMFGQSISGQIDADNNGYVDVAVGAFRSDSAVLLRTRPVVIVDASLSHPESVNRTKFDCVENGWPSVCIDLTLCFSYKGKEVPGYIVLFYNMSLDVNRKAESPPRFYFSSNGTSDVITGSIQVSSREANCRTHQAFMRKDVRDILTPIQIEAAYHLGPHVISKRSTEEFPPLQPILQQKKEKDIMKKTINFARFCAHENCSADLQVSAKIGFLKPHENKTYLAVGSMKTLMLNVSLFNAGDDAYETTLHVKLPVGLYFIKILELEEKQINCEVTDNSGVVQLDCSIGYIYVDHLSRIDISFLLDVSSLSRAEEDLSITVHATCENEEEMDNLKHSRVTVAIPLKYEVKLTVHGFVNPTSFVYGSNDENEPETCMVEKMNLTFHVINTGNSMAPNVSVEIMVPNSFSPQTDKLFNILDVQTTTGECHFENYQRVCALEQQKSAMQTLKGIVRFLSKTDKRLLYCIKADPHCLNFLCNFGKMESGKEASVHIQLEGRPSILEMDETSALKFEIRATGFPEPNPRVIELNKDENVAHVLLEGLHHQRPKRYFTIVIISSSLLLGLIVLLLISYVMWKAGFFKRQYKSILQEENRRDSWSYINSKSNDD
α4β7, sequence (P26010 20-798): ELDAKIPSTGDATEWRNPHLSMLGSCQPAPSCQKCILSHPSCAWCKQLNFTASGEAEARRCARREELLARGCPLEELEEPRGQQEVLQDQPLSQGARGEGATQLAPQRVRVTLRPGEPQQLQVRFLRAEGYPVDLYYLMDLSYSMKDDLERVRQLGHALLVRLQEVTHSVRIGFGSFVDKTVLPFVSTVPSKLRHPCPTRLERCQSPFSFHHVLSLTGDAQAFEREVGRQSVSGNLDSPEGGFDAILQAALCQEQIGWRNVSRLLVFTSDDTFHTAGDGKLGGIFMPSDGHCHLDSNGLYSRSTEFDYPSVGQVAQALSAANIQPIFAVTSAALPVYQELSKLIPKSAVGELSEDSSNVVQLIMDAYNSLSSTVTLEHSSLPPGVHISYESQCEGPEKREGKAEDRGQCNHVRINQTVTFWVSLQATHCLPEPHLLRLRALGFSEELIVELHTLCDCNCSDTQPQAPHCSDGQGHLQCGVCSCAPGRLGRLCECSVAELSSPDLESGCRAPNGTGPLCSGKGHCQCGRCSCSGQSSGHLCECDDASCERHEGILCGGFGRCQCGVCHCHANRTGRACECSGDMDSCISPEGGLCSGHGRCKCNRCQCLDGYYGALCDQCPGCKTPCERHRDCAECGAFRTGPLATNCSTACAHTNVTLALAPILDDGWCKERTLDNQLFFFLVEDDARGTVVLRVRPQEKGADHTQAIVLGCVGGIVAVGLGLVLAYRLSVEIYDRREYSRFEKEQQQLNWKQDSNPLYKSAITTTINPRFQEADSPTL
Summary of the method: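 Adhesion read-out: MTT absorbance at 570 nm minus no-cell wells, after three washes. Plates coated with rh MAdCAM-1/Fc received peptide dilutions plus 200,000 RPMI 8866 cells in Mn2+ (1 mM)-supplemented DMEM, 0.1% BSA, HEPES pH 7, incubated 30-45 min, 37 °C.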

[2] = simulated intestinal fluid (SIF) with 1% porcine pancreatin, > means experiment was stopped at that time and half life was not reached, read-out: Stabilty SIF t1/2

| SMILES | half-life at 22 μM [1, 2] [h] | IC50 (α4β7) [nM] | half-life at 22 μM ([1]; simulated intestinal fluid (SIF) with 1% porcine pancreatin, alone or in parentheses after >360, read-out: Stabilty SIF t1/2, in hr (converted)) [h] | half-life at 22 μM ([1]; simulated intestinal fluid (SIF) with porcine pancreatin, > means experiment was stopped at that time and half life was not reached, read-out: Stabilty SIF t1/2) [h] |
| --- | --- | --- | --- | --- |
| CC(=O)N[C@@H]1C(=O)N(C)[C@@H](CCCNC(=N)N)C(=O)N[C@@H](CO)C(=O)N[C@@H](CC(=O)O)C(=O)N[C@@H]([C@@H](C)O)C(=O)N[C@@H](CC(C)C)C(=O)N[C@H](C(=O)N[C@@H](Cc2c[nH]c3ccccc23)C(=O)N[C@@H](CCC(=O)O)CC(=O)N[C@H](CCCCNC(=O)COCC(=O)NCCCC[C@@H](NC(=O)C[C@H](CCC(=O)O)NC(=O)[C@H](Cc2c[nH]c3ccccc23)NC(=O)[C@H]2NC(=O)[C@H](CC(C)C)NC(=O)[C@H]([C@@H](C)O)NC(=O)[C@H](CC(=O)O)NC(=O)[C@H](CO)NC(=O)[C@H](CCCNC(=N)N)N(C)C(=O)[C@@H](NC(C)=O)C(C)(C)SSC2(C)C)C(N)=O)C(N)=O)C(C)(C)SSC1(C)C [compound 1] (I: Ac-[Pen][NMeR]SDTL[Pen]W[β3hE][dK]-NH2 / II: Ac-[Pen][NMeR]SDTL[Pen]W[β3hE][dK]-NH2; disulfide I:1-I:7, II:1-II:7; linker I:10-II:10 via Diglycolyl) | > 3 | 50 to 100 | – | – |
| CC(=O)N[C@@H]1C(=O)N(C)[C@@H](CCCNC(=N)N)C(=O)N[C@@H](CO)C(=O)N[C@@H](CC(=O)O)C(=O)N[C@@H]([C@@H](C)O)C(=O)N[C@@H](CC(C)C)C(=O)N[C@H](C(=O)N[C@@H](Cc2ccc3ccccc3c2)C(=O)N[C@H](Cc2ccc(O)cc2)C(=O)N[C@H](CCCCNC(=O)COCC(=O)NCCCC[C@@H](NC(=O)[C@@H](Cc2ccc(O)cc2)NC(=O)[C@H](Cc2ccc3ccccc3c2)NC(=O)[C@H]2NC(=O)[C@H](CC(C)C)NC(=O)[C@H]([C@@H](C)O)NC(=O)[C@H](CC(=O)O)NC(=O)[C@H](CO)NC(=O)[C@H](CCCNC(=N)N)N(C)C(=O)[C@@H](NC(C)=O)C(C)(C)SSC2(C)C)C(N)=O)C(N)=O)C(C)(C)SSC1(C)C [compound 27] (I: Ac-[Pen][NMeR]SDTL[Pen][2Nal][dY][dK]-NH2 / II: Ac-[Pen][NMeR]SDTL[Pen][2Nal][dY][dK]-NH2; disulfide I:1-I:7, II:1-II:7; linker I:10-II:10 via Diglycolyl) | > 3 | 25 to 50 | – | – |
| CC(=O)N[C@@H]1C(=O)N(C)[C@@H](CCCNC(=N)N)C(=O)N[C@@H](CO)C(=O)N[C@@H](CC(=O)O)C(=O)N[C@@H]([C@@H](C)O)C(=O)N[C@@H](CC(C)C)C(=O)N[C@H](C(=O)N[C@@H](Cc2c[nH]c3ccccc23)C(=O)O)C(C)(C)SSC1(C)C [compound 127] (Ac-[Pen][NMeR]SDTL[Pen]W-OH; disulfide 1-7) | – | 100 to 500 | 35 | – |
| CC(=O)N[C@@H]1C(=O)N(C)[C@@H](CCCNC(=N)N)C(=O)N[C@@H](CO)C(=O)N[C@@H](CC(=O)O)C(=O)N[C@@H]([C@@H](C)O)C(=O)N[C@@H](CC(C)C)C(=O)N[C@H](C(=O)N[C@@H](Cc2cccc(C(N)=O)c2)C(=O)N[C@H](CCC(=O)O)C(=O)N[C@H](CCCCNC(=O)COCC(=O)NCCCC[C@@H](NC(=O)[C@@H](CCC(=O)O)NC(=O)[C@H](Cc2cccc(C(N)=O)c2)NC(=O)[C@H]2NC(=O)[C@H](CC(C)C)NC(=O)[C@H]([C@@H](C)O)NC(=O)[C@H](CC(=O)O)NC(=O)[C@H](CO)NC(=O)[C@H](CCCNC(=N)N)N(C)C(=O)[C@@H](NC(C)=O)C(C)(C)SSC2(C)C)C(N)=O)C(N)=O)C(C)(C)SSC1(C)C [compound 99] (I: Ac-[Pen][NMeR]SDTL[Pen][Phe(3-CONH2)][dE][dK]-NH2 / II: Ac-[Pen][NMeR]SDTL[Pen][Phe(3-CONH2)][dE][dK]-NH2; disulfide I:1-I:7, II:1-II:7; linker I:10-II:10 via Diglycolyl) | – | 100 to 500 | – | > 3 |
| CC(=O)N[C@@H]1C(=O)N(C)[C@@H](CCCNC(=N)N)C(=O)N[C@@H](CO)C(=O)N[C@@H](CC(=O)O)C(=O)N[C@@H]([C@@H](C)O)C(=O)N[C@@H](CC(C)C)C(=O)N[C@H](C(=O)N[C@@H](Cc2c[nH]c3ccccc23)C(=O)N[C@H](CCC(=O)O)C(=O)N[C@@H](CCN)C(N)=O)C(C)(C)SSC1(C)C [compound 56] (Ac-[Pen][NMeR]SDTL[Pen]W[dE][Dab]-NH2; disulfide 1-7) | > 3 | 500 to 1000 | – | – |
| CC(=O)N[C@@H]1C(=O)N(C)[C@@H](CCCNC(=N)N)C(=O)N[C@@H](CO)C(=O)N[C@@H](CC(=O)O)C(=O)N[C@@H]([C@@H](C)O)C(=O)N[C@@H](CC(C)C)C(=O)N[C@H](C(=O)N[C@@H](Cc2ccc(F)cc2)C(=O)N[C@H](CCC(=O)O)C(=O)N[C@H](CCCCNC(=O)COCC(=O)NCCCC[C@@H](NC(=O)[C@@H](CCC(=O)O)NC(=O)[C@H](Cc2ccc(F)cc2)NC(=O)[C@H]2NC(=O)[C@H](CC(C)C)NC(=O)[C@H]([C@@H](C)O)NC(=O)[C@H](CC(=O)O)NC(=O)[C@H](CO)NC(=O)[C@H](CCCNC(=N)N)N(C)C(=O)[C@@H](NC(C)=O)C(C)(C)SSC2(C)C)C(N)=O)C(N)=O)C(C)(C)SSC1(C)C [compound 107] (I: Ac-[Pen][NMeR]SDTL[Pen][Phe(4-F)][dE][dK]-NH2 / II: Ac-[Pen][NMeR]SDTL[Pen][Phe(4-F)][dE][dK]-NH2; disulfide I:1-I:7, II:1-II:7; linker I:10-II:10 via Diglycolyl) | > 3 | 25 to 50 | – | – |
| CC(=O)N[C@@H]1C(=O)N(C)[C@@H](CCCNC(=N)N)C(=O)N[C@@H](CO)C(=O)N[C@@H](CC(=O)O)C(=O)N[C@@H]([C@@H](C)O)C(=O)N[C@@H](CC(C)C)C(=O)N[C@H](C(=O)N[C@@H](CCc2ccccc2)C(=O)N[C@@H](CCC(=O)O)C(=O)N[C@H](CCCCNC(=O)COCC(=O)NCCCC[C@@H](NC(=O)[C@H](CCC(=O)O)NC(=O)[C@H](CCc2ccccc2)NC(=O)[C@H]2NC(=O)[C@H](CC(C)C)NC(=O)[C@H]([C@@H](C)O)NC(=O)[C@H](CC(=O)O)NC(=O)[C@H](CO)NC(=O)[C@H](CCCNC(=N)N)N(C)C(=O)[C@@H](NC(C)=O)C(C)(C)SSC2(C)C)C(N)=O)C(N)=O)C(C)(C)SSC1(C)C [compound 45] (I: Ac-[Pen][NMeR]SDTL[Pen][hPhe]E[dK]-NH2 / II: Ac-[Pen][NMeR]SDTL[Pen][hPhe]E[dK]-NH2; disulfide I:1-I:7, II:1-II:7; linker I:10-II:10 via Diglycolyl) | 0.617 | 25 to 50 | – | – |
| CC(=O)N[C@@H]1C(=O)N(C)[C@@H](CCCNC(=N)N)C(=O)N[C@@H](CO)C(=O)N[C@@H](CC(=O)O)C(=O)N[C@@H]([C@@H](C)O)C(=O)N[C@@H](CC(C)C)C(=O)N[C@H](C(=O)N[C@@H](Cc2c[nH]c3ccccc23)C(=O)N[C@@H](CCC(=O)O)C(=O)O)C(C)(C)SSC1(C)C [compound 128] (Ac-[Pen][NMeR]SDTL[Pen]WE-OH; disulfide 1-7) | 3 | 50 to 100 | – | – |
| CC(=O)N[C@@H]1C(=O)N(C)[C@@H](CCCNC(=N)N)C(=O)N[C@@H](CO)C(=O)N[C@@H](CC(=O)O)C(=O)N[C@@H]([C@@H](C)O)C(=O)N[C@@H](CC(C)C)C(=O)N[C@H](C(=O)N2Cc3ccccc3C[C@H]2C(=O)N[C@H](CCC(=O)O)C(=O)N[C@H](CCCCNC(=O)COCC(=O)NCCCC[C@@H](NC(=O)[C@@H](CCC(=O)O)NC(=O)[C@@H]2Cc3ccccc3CN2C(=O)[C@H]2NC(=O)[C@H](CC(C)C)NC(=O)[C@H]([C@@H](C)O)NC(=O)[C@H](CC(=O)O)NC(=O)[C@H](CO)NC(=O)[C@H](CCCNC(=N)N)N(C)C(=O)[C@@H](NC(C)=O)C(C)(C)SSC2(C)C)C(N)=O)C(N)=O)C(C)(C)SSC1(C)C [compound 80] (I: Ac-[Pen][NMeR]SDTL[Pen][Tic][dE][dK]-NH2 / II: Ac-[Pen][NMeR]SDTL[Pen][Tic][dE][dK]-NH2; disulfide I:1-I:7, II:1-II:7; linker I:10-II:10 via Diglycolyl) | > 3 | 50 to 100 | – | – |
| CC(=O)N[C@@H]1C(=O)N(C)[C@@H](CCCNC(=N)N)C(=O)N[C@@H](CO)C(=O)N[C@@H](CC(=O)O)C(=O)N[C@@H]([C@@H](C)O)C(=O)N[C@@H](CC(C)C)C(=O)N[C@H](C(=O)N[C@@H](Cc2c[nH]c3ccccc23)C(=O)N[C@H](Cc2c[nH]cn2)C(=O)N[C@H](CCCCNC(=O)COCC(=O)NCCCC[C@@H](NC(=O)[C@@H](Cc2c[nH]cn2)NC(=O)[C@H](Cc2c[nH]c3ccccc23)NC(=O)[C@H]2NC(=O)[C@H](CC(C)C)NC(=O)[C@H]([C@@H](C)O)NC(=O)[C@H](CC(=O)O)NC(=O)[C@H](CO)NC(=O)[C@H](CCCNC(=N)N)N(C)C(=O)[C@@H](NC(C)=O)C(C)(C)SSC2(C)C)C(N)=O)C(N)=O)C(C)(C)SSC1(C)C [compound 104] (I: Ac-[Pen][NMeR]SDTL[Pen]W[dH][dK]-NH2 / II: Ac-[Pen][NMeR]SDTL[Pen]W[dH][dK]-NH2; disulfide I:1-I:7, II:1-II:7; linker I:10-II:10 via Diglycolyl) | 0.583 | 100 to 500 | – | – |
